Kd data for one compound are collected here from publication PMC10334278 (Journal of Pharmaceutical Analysis, 2023).

pKd: −log10 of the molar value.

In the assay the target is T1, Recombinant human GSS (Homo sapiens, UniProt P48637).
T1 sequence (P48637 2-474): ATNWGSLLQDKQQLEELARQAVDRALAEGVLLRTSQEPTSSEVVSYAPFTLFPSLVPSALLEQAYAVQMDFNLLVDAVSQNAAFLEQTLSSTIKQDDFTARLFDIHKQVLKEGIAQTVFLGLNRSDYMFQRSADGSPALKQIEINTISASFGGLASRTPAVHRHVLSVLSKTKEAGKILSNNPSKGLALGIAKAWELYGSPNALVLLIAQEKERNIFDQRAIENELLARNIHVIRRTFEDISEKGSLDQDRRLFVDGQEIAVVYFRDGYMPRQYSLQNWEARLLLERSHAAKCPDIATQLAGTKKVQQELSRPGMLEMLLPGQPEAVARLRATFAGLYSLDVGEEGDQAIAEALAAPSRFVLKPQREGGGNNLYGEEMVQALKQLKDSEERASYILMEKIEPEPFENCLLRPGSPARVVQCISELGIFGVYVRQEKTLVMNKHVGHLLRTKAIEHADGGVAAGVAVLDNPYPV
Put plainly: isothermal titration calorimetry. The class given is binding.

The term pKd denotes the negative decadic logarithm of the Kd, by convention in mol/L. As to `N[C@@H](CCC(=O)N[C@@H](CS)C(=O)O)C(=O)O` [γ-glutamylcysteine], the pKd was 5.96.
